Test results: patent US12358879B2, “Heterocyclic compound” (Takeda Pharmaceutical Company Limited, priority 2019, dated 2025)

Test system: Skin fibroblasts derived from FA patients (GM4078)
Assay: RSL3-induced cell death inhibitory activity in skin fibroblasts derived from FA patients (ATP, CellTiter-Glo)
Assay type: cell-based, human
Settings: 3 μmol/l RSL3, 24 hours
Experimental: The effects of the compounds according to the present disclosure were evaluated according to the literature (M. G. Cotticelli et al, J Pharmacol Exp Ther 2019, 369, 47-54.).
Skin fibroblasts derived from FA patients (Coriell Institute for Medical Research, GM4078) were cultured in a culture medium consisting of DMEM (Thermo Fisher Scientific, 11995-065), 10% fetal bovine serum (Thermo Fisher Scientific, 26140-087), 1% GlutaMAX supplement (Thermo Fisher Scientific, 35050-061) and 1% Penicillin-Streptomycin solution (FUJIFILM Wako Pure Chemical Corporation, 168-23191).
For assay, the fibroblasts in the above culture medium were seeded in a 384-well plate at 1,500 cells per well, and the test compound and 3 μmol/l (final concentration) RSL3 were added to the plate the day after seeding. The concentration of the test compound added to the assay plate was 0.01, 0.1, 1 and 10 μmol/l as 4 points, and DMSO was added as a negative control for the test compound and RSL3. Twenty-four hours after the addition of RSL3/the test compound, CellTiter-Glo Luminescent Cell Viability Assay solution (Promega, G7573) was added to the plate to lyse the cells, and ATP was measured as an index of cell viability by detecting chemiluminescence with a plate reader.
RSL3-induced cell death inhibitory activity of the test compound=((X−C)/(T−C))×100 • X: ATP in the RSL3 addition/the test compound addition group, • C: ATP in the RSL3 addition/the test compound non-addition group, • T: ATP in the RSL3 non-addition/the test compound non-addition group

SMILES	RSL3-induced cell death inhibitory activity (%) at each compound concentration (μmol/l) (compound 0.01 μmol/l)	RSL3-induced cell death inhibitory activity (%) at each compound concentration (μmol/l) (compound 0.1 μmol/l)	RSL3-induced cell death inhibitory activity (%) at each compound concentration (μmol/l) (compound 1 μmol/l)	RSL3-induced cell death inhibitory activity (%) at each compound concentration (μmol/l) (compound 10 μmol/l)
COCc1nn(C)cc1Nc1nn(C(C)C)c2cc(C(C)(C)O)ccc12 [Example 85, 2-[3-{[3-(methoxymethyl)-1-methyl-1H-pyrazol-4-yl]amino}-1-(propan-2-yl)-1H-indazol-6-yl]propan-2-ol]	11.4%	43.2%	68.4%	72.6%
COCc1nn(C)cc1Nc1nn(C2CCC2)c2ccc(C(C)(C)O)cc12 [Example 88, 2-(1-cyclobutyl-3-{[3-(methoxymethyl)-1-methyl-1H-pyrazol-4-yl]amino}-1H-indazol-5-yl)propan-2-ol]	13.6%	61.2%	73.0%	72.7%
